How the values were obtained:
Assay in all cases: relative viability (nuclei count vs DMSO), 5 days (fraction); higher = more cells survive
Daporinad + Vorinostat = compound: O=C(/C=C/c1cccnc1)NCCCCC1CCN(C(=O)c2ccccc2)CC1 [Daporinad] + O=C(CCCCCCC(=O)Nc1ccccc1)NO [Vorinostat] (partner 1 µM)
Procedure, shortened: (§1)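 Lung cancer cell lines in 1536-well plates got either a single drug or a fixed anchor-drug dose together with five library-drug doses (not always all listed) in √10 steps, by pin tool, on the day after seeding. Nuclei were counted after 5 days, and relative viability is the treated-to-vehicle ratio of nuclei counts. Values are medians of duplicate plates.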

Daporinad + Decitabine = compound: O=C(/C=C/c1cccnc1)NCCCCC1CCN(C(=O)c2ccccc2)CC1 [Daporinad] + Nc1ncn([C@H]2C[C@H](O)[C@@H](CO)O2)c(=O)n1 [Decitabine] (partner 2 µM)
Procedure, shortened: as §1

Daporinad + Dasatinib = compound: O=C(/C=C/c1cccnc1)NCCCCC1CCN(C(=O)c2ccccc2)CC1 [Daporinad] + Cc1nc(Nc2ncc(C(=O)Nc3c(C)cccc3Cl)s2)cc(N2CCN(CCO)CC2)n1 [Dasatinib] (partner 0.075 µM)
Procedure, shortened: as §1

R406 + Vorinostat = compound: COc1cc(Nc2ncc(F)c(Nc3ccc4c(n3)NC(=O)C(C)(C)O4)n2)cc(OC)c1OC [R406] + O=C(CCCCCCC(=O)Nc1ccccc1)NO [Vorinostat] (partner 1 µM)
Procedure, shortened: as §1

| Cell Line | relative viability (Daporinad + Vorinostat; first compound 0.0005 µM) | relative viability (Daporinad + Vorinostat; first compound 0.001581 µM) | relative viability (Daporinad + Vorinostat; first compound 0.005 µM) | relative viability (Daporinad + Vorinostat; first compound 0.01581 µM) | relative viability (Daporinad + Decitabine; first compound 0.0005 µM) | relative viability (Daporinad + Decitabine; first compound 0.001581 µM) | relative viability (Daporinad + Decitabine; first compound 0.005 µM) | relative viability (Daporinad + Decitabine; first compound 0.01581 µM) | relative viability (Daporinad + Dasatinib; first compound 0.0005 µM) | relative viability (Daporinad + Dasatinib; first compound 0.001581 µM) | relative viability (Daporinad + Dasatinib; first compound 0.005 µM) | relative viability (Daporinad + Dasatinib; first compound 0.01581 µM) | relative viability (R406 + Vorinostat; first compound 0.08 µM) | relative viability (R406 + Vorinostat; first compound 0.253 µM) | relative viability (R406 + Vorinostat; first compound 0.8 µM) | relative viability (R406 + Vorinostat; first compound 2.53 µM) | relative viability (R406 + Vorinostat; first compound 8 µM) |
| --- | --- | --- | --- | --- | --- | --- | --- | --- | --- | --- | --- | --- | --- | --- | --- | --- | --- |
| 201T | 0.965 | 1.08 | 1.05 | 1.04 | 0.849 | 0.917 | 0.832 | 0.881 | 0.52 | 0.555 | 0.595 | 0.6 | 0.893 | 1.02 | 1.02 | 0.795 | 0.749 |
| A549 |  |  |  |  | 0.227 | 0.252 | 0.234 | 0.161 |  |  |  |  |  |  |  |  |  |
| A-427 | 0.838 | 0.886 | 0.793 | 0.659 | 0.54 | 0.571 | 0.506 | 0.493 | 0.613 | 0.841 | 0.618 | 0.338 | 0.856 | 0.928 | 0.852 | 0.939 | 0.621 |
| ABC-1 | 0.809 | 1.51 | 1.46 | 0.9 | 0.807 | 1.33 | 0.987 | 0.911 | 0.481 | 0.595 | 0.511 | 0.42 | 1.33 | 1.37 | 1.35 | 1.11 | 0.765 |
| BEN | 0.554 | 0.661 | 0.679 | 0.63 | 0.799 | 0.783 | 0.803 | 0.835 | 0.316 | 0.251 | 0.318 | 0.414 | 0.606 | 0.601 | 0.607 | 0.555 | 0.542 |
| CAL-12T | 0.659 | 0.799 | 0.402 | 0.217 |  |  |  |  | 0.342 | 0.409 | 0.37 | 0.134 | 0.785 | 0.723 | 0.758 | 0.762 | 0.509 |
| COR-L23 | 0.427 | 0.345 | 0.408 | 0.161 | 0.43 | 0.471 | 0.437 | 0.227 | 0.541 | 0.575 | 0.38 | 0.183 | 0.483 | 0.433 | 0.424 | 0.279 | 0.244 |
| COR-L 105 | 0.775 | 0.705 | 0.861 | 0.851 | 0.692 | 0.601 | 0.612 | 0.6 | 0.317 | 0.376 | 0.346 | 0.416 | 0.743 | 0.893 | 0.824 | 0.651 | 0.514 |
| ChaGo-K-1 | 0.832 | 0.743 | 0.677 | 0.283 | 0.534 | 0.532 | 0.355 | 0.246 | 0.672 | 0.5 | 0.476 | 0.278 | 0.755 | 0.839 | 0.822 | 0.609 | 0.637 |
| EKVX | 0.621 | 0.825 | 0.841 | 0.851 | 0.307 | 0.391 | 0.36 | 0.359 | 0.47 | 0.535 | 0.619 | 0.838 | 0.78 | 0.567 | 0.757 | 0.6 | 0.653 |
| EMC-BAC-2 | 0.319 | 0.567 | 0.421 | 0.301 | 0.993 | 1.05 | 0.666 | 0.464 | 0.359 | 0.362 | 0.387 | 0.319 | 0.405 | 0.785 | 0.53 | 0.411 | 0.145 |
| EPLC-272H | 0.408 | 0.531 | 0.401 | 0.294 | 0.318 | 0.375 | 0.378 | 0.403 | 0.393 | 0.482 | 0.458 | 0.473 | 0.29 | 0.444 | 0.511 | 0.286 | 0.168 |
| H3255 | 0.668 | 0.591 | 0.775 | 0.979 | 0.464 | 0.605 | 0.863 | 0.816 | 0.391 | 0.387 | 0.491 | 0.443 | 0.767 | 0.816 | 0.996 | 0.72 | 0.638 |
| HARA | 0.39 | 0.527 | 0.518 | 0.663 | 0.351 | 0.496 | 0.442 | 0.207 | 0.3 | 0.285 | 0.284 | 0.339 | 0.66 | 0.606 | 0.515 | 0.489 | 0.515 |
| HCC-15 | 0.782 | 0.959 | 0.889 | 0.911 | 0.601 | 0.714 | 0.771 | 0.766 | 0.62 | 0.707 | 0.686 | 0.837 | 0.919 | 0.921 | 0.867 | 0.842 | 0.81 |
| HCC-44 | 0.928 | 1.18 | 1.19 | 1.03 | 0.921 | 0.988 | 1.04 | 0.95 |  |  |  |  | 1.07 | 1.1 | 1.1 | 1.04 | 1.22 |
| HCC-78 | 0.368 | 0.414 | 0.345 | 0.5 | 0.805 | 0.744 | 0.669 | 0.65 | 0.363 |  | 0.328 | 0.379 | 0.452 | 0.426 | 0.412 | 0.29 | 0.331 |
| HCC-366 | 0.363 |  | 0.389 | 0.321 | 0.413 |  | 0.368 | 0.321 | 0.697 | 0.738 | 0.646 | 0.738 | 0.264 | 0.482 | 0.332 | 0.137 | 0.077 |
| HCC-827 | 0.929 | 0.871 | 0.913 | 0.906 | 0.322 | 0.356 | 0.351 | 0.336 | 0.399 | 0.283 | 0.294 | 0.344 | 0.791 | 0.853 | 0.892 | 0.788 | 0.817 |
| HOP-62 | 0.341 | 0.724 | 0.618 | 0.414 | 0.176 | 0.209 | 0.208 | 0.179 | 0.62 | 0.809 | 0.721 | 0.587 | 0.66 | 0.803 | 0.836 | 0.464 | 0.463 |
| IA-LM | 0.855 | 1.25 | 0.986 | 1.09 |  |  |  |  |  |  |  |  | 0.984 | 0.756 | 1.04 | 0.99 | 1.05 |

— the supplement of paper PMC10307832
